pIC50: −log10 of the molar value.
Tests used:
Hec1-Nek2 interaction = biological target: T1, Hec1-Nek2 interaction (Homo sapiens, UniProt O14777); assay: Co-immunoprecipitation analysis of Hec1-Nek2 interaction in K562 cells; type: cell-based; details: K562 cells treated 8 or 16 hours
T1 construct: endogenous in cells; host or cells: K562
T1 sequence (O14777 1-642): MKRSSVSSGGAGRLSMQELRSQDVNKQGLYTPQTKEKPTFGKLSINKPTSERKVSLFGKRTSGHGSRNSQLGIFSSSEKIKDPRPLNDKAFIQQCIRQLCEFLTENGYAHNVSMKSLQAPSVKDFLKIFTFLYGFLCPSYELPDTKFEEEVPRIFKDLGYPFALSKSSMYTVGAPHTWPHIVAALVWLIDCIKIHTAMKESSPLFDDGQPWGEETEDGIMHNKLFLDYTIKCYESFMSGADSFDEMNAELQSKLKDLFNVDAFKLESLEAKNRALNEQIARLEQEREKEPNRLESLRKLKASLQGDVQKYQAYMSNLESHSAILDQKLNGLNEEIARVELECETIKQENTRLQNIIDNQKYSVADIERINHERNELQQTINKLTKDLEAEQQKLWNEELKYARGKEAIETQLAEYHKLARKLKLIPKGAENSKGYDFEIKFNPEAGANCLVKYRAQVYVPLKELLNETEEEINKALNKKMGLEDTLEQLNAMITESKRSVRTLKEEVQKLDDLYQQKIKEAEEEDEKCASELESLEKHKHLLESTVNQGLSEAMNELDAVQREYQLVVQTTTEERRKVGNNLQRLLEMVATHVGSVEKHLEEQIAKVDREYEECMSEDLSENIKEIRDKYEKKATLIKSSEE
Experimental: Co-Immunoprecipitation Analysis: Co-immunoprecipitation (Co-IP)/Western blotting assays were performed to assess the effects of Hec1 inhibitory compounds on Hec1-Nek2 interaction. K562 cells were treated with Hec1 inhibitory compounds as indicated. After harvesting and washing once with cold PBS, cells were lysed on ice in lysis buffer (50 mM Tris (pH 7.5), 250 mM NaCl, 5 mM EDTA (pH 8.0), 0.1% NP-40, 1 mM PMSF, 50 mM NaF, and protease inhibitor cocktail (P/N P8340 Sigma Aldrich, St. Louis Mo. USA) for 30 min. Lysates were then centrifuged at 12,000 rpm at 4° C. for 20 minutes. Input supernatant was incubated in the presence of anti Nek2 antibody (rabbit anti-Nek2, Rockland Immunochemicals, Gilbertsville, Pa. 19525 USA) or IgG control antibody for 2 h at 4° C., followed by the addition protein G coupled to agarose beads (GE Healthcare, Anaheim Calif. 92805 USA). After mixing for 1 h at 4° C., the agarose beads were centrifuged at 12,000 rpm at 4° C. for 20 seconds. The beads were then washed 5 times with cold Co-IP buffer, boiled in SDS-PAGE sample buffer followed by SDS-PAGE. The presence of Hec1 and Nek2 was detected by Western blotting with mouse monoclonal antibodies directed to Hec1 (GeneTex, Inc., Irvine Calif. 92606 USA) and Nek2 (BD Biosciences, San Jose Calif. 95131 USA). […]

hERG potassium channels = biological target: T2, hERG potassium channels (Homo sapiens, UniProt Q12809); assay: [3H]Astemizole competitive binding assay, hERG; details: [3H]-astemizole displacement, hERG membrane protein
T2 construct: purchased PerkinElmer
Experimental: Here, [3H] Astemizole competitive binding assays were performed to determine the ability of compounds to displace the known radioligand [3H]-astemizole from the hERG potassium channels, following standard protocol with minor modifications. In brief, assays were performed in 200 μl of binding buffer (50 mM HEPES, pH 7.4, 60 mM KCl, and 0.1% BSA) containing 1.5 nM of [3H]astemizole, 3 μg/well of hERG membrane protein (PerkinElmer), and TAI-1 (in 1% DMSO final concentration) at 27° C. for 60 min. Nonspecific binding (NSB) was determined in the presence of 10 μM astemizole. […] Binding was terminated by rapid filtration onto polyethyleneimine-presoaked, buffer-washed UniFilter-96, GF/C (Perkin Elmer) using a vacuum manifold (Porvair Sciences). Captured radiolabel signal was detected using TopCount NXT (Perkin Elmer). […] All results are derived from two independent experiments.

[1] = test system: caspase-3, PARP, Mcl-1 and XIAP; assay: Immunoblot of apoptotic pathway proteins; type: cell-based; details: 1 μM, 24 or 48 hours
Experimental: Immunoblot Analysis: For immunoblotting experiments, cells were plated in a 6-well culture plate and cultured overnight. Cells were incubated with the test compounds for the indicated time and whole cell lysate was harvested by adding 1×SDS-PAGE Sample Buffer (62.5 mM Tris-HCl (pH 6.8 at 25° C.), 2% w/v SDS, 10% glycerol, 50 mM DTT, and 0.01% w/v bromophenol blue or phenol red). Proteins were separated by SDS-PAGE electrophoresis and transferred to PVDF membrane. Protein expression was immunoblotted using various primary antibodies and detected using Immobilon Western Chemiluminescent HRP Substrate (Millipore, Billerica Mass. 01821 USA). Antibodies used include anti-Cleaved Caspase3, (Rabbit, Cell Signaling Technology, Danvers Mass. 01923 USA); anti-PARP (Rabbit, Cell Signaling Technology, Danvers Mass. 01923 USA); anti-MCL-1 (mouse, BD Biosciences, San Jose Calif. 95131 USA); anti-XIAP (rabbit, Cell Signaling Technology, Danvers Mass. 01923 USA); anti-Bcl-2 (mouse, Santa Cruz Biotechnology, Santa Cruz Calif. 95060); anti-Cyclin BI (mouse, BD Biosciences, San Jose Calif. 95131 USA); anti-Cyclin D1 (mouse, Santa Cruz Biotechnology, Santa Cruz Calif. 95060); Anti-Nek2 (mouse, BD Biosciences, San Jose Calif. 95131 USA); Anti-HEC1, (rabbit, GeneTex, Inc., Irvine Calif. 92606 USA); and anti-actin (mouse, Millipore, Billerica Mass. 01821 USA).
100 nM Taxol was used as a positive control drug for apoptosis.

T2 sequence (Q12809 whole entry): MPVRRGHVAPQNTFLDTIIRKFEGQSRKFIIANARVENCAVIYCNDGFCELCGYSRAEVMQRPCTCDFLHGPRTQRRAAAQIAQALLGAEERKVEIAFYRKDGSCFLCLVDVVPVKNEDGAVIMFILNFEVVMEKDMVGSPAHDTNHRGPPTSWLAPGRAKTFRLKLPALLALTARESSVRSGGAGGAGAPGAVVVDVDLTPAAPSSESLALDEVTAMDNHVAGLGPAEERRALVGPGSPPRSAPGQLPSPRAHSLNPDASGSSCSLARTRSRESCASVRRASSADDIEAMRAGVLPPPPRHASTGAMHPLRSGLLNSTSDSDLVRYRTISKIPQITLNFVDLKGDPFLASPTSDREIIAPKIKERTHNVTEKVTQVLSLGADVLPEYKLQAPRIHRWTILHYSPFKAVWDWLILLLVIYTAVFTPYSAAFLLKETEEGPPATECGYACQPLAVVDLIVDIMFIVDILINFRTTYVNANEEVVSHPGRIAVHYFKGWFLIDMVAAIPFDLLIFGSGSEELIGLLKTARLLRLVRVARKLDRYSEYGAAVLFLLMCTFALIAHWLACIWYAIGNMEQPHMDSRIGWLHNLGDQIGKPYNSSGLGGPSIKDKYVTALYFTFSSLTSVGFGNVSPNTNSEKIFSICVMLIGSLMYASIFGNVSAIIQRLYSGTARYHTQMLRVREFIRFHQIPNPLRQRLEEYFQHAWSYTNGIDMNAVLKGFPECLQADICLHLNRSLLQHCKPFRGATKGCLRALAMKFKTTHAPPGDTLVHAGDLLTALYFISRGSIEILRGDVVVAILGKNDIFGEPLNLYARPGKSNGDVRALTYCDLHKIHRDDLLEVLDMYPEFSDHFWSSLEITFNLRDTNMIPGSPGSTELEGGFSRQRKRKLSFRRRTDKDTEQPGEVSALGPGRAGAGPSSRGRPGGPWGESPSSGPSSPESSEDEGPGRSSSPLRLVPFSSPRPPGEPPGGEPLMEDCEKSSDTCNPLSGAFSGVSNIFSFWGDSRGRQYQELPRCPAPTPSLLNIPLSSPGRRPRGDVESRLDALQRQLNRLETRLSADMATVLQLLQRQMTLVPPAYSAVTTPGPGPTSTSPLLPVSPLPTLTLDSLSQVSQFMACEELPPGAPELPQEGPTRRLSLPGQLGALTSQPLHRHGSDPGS

Structure (SMILES): COCCOc1cnc(Sc2cc(C)c(-c3csc(NC(=O)c4ccncc4)n3)c(C)c2)cn1 [Compound 27, N-(4-{4-(5-(2-methoxyethoxy)pyrazin-2-ylthio)-2,6-dimethylphenyl}thiazol-2-yl)isonicotinamide]
- Hec1/Nek2 interaction (Hec1 in Nek2 immunoprecipitates) (Hec1-Nek2 interaction): significantly disrupted Hec1/Nek2 interaction
- pIC50 (hERG potassium channels): < 5.00
- levels of apoptotic (caspase-3, PARP) and anti-apoptotic (Mcl-1, XIAP) proteins [1]: cleavage of the apoptotic proteins accompanied by down-regulation of the anti-apoptotic proteins

Source: patent publication US8999983B2, “Modulators of Hec1 activity and methods therefor” (Taivex Therapeutics Corporation, priority 2011, dated 2015)
